SMILES strings stand for the structures.

This passage reports Activity results from ChEMBL document CHEMBL2074006, “Induction of ABCC3 (MRP3) by pregnane X receptor activators” (Drug Metab Dispos, 2003).

The target of data set [1] is ATP-binding cassette sub-family C member 3 (Mus musculus, UniProt B2RX12). The data set can be described thus: (§1) TP_TRANSPORTER: quantitative PCR in vivo, liver of mouse. Format: functional, organism-based.
Data set [2] addresses ATP-binding cassette sub-family C member 2 (Mus musculus, UniProt Q8VI47). The data set is described as §1. The format is functional, organism-based.

ATP-binding cassette sub-family C member 3, sequence (B2RX12 whole entry): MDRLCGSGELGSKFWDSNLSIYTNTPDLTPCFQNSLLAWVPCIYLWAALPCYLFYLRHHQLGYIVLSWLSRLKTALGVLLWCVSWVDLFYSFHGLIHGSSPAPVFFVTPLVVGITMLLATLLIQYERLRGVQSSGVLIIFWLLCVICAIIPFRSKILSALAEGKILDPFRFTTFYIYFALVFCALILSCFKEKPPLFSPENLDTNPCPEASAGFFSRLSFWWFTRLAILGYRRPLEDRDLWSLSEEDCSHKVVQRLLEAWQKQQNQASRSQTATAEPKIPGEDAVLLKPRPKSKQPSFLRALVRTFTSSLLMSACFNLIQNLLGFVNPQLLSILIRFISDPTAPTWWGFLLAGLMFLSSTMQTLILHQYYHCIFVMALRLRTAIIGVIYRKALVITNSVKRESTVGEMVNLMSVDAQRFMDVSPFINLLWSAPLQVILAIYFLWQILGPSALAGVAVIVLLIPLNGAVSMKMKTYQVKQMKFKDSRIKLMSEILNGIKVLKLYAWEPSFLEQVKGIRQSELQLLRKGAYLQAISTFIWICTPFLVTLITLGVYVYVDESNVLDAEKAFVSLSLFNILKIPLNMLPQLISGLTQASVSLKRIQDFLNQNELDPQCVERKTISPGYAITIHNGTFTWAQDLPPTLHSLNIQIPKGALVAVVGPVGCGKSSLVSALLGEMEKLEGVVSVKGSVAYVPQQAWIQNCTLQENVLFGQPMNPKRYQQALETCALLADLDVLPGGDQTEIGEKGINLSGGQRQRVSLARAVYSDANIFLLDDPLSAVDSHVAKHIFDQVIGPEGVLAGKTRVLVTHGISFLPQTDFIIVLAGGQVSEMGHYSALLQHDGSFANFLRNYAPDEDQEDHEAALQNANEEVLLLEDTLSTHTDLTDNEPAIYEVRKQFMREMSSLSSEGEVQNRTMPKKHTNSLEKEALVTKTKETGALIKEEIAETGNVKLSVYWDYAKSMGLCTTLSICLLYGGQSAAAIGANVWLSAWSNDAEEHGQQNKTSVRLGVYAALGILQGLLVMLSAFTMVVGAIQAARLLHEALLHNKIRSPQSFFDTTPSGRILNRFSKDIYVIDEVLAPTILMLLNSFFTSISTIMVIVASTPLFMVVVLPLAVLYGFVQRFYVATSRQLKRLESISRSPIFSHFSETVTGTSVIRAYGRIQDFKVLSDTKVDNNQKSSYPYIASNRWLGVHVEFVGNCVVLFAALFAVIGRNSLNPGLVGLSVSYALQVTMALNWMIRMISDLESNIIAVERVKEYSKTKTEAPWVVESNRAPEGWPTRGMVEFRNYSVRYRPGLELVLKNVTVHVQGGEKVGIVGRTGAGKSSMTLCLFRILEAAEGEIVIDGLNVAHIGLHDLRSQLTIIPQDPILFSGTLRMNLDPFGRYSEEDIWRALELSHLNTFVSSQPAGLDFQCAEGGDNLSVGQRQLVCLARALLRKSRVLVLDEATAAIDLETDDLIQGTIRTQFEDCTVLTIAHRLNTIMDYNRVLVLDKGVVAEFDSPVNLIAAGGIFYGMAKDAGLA
ATP-binding cassette sub-family C member 2, sequence (Q8VI47 whole entry): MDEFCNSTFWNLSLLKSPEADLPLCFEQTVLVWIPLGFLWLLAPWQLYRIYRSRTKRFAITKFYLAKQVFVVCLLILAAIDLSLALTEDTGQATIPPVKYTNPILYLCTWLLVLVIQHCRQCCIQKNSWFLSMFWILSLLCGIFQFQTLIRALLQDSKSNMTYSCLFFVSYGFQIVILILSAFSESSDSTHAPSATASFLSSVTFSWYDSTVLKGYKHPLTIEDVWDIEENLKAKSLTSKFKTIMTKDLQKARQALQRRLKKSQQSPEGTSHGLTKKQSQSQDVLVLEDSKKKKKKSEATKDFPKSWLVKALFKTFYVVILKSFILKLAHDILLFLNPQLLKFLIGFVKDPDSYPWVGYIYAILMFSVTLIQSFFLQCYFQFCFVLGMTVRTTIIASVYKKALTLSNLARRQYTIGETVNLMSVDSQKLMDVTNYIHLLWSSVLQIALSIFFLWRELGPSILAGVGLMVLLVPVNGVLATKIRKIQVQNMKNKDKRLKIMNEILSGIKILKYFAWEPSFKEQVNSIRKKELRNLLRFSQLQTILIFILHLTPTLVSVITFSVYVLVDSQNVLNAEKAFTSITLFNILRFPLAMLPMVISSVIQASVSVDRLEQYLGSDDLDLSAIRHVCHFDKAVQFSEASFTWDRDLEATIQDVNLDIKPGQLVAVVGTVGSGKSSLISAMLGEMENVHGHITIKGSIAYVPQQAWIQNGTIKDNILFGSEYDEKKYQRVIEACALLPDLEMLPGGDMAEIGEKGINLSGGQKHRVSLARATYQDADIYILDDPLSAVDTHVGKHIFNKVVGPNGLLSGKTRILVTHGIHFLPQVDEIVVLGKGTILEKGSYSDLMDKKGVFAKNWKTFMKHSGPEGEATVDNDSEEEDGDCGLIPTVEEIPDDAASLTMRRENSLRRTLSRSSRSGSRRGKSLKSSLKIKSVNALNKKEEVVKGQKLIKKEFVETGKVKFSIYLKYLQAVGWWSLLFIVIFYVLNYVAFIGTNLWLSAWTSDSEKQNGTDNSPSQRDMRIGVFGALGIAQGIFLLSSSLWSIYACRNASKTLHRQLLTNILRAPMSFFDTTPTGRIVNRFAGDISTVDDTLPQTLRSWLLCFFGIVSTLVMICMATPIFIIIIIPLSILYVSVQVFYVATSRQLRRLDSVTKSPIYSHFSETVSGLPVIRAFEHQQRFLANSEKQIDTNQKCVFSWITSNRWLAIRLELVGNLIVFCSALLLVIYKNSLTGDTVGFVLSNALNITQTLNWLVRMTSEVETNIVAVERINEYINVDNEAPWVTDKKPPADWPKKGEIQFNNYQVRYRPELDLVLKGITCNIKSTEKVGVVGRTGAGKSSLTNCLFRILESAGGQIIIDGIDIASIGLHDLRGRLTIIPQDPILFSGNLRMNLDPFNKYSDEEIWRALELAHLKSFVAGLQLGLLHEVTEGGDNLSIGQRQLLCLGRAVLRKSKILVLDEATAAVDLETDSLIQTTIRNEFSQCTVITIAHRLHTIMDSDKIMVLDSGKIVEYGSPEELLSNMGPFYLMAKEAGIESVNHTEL

As to `CC(=O)[C@H]1[C@H](C#N)C[C@H]2[C@@H]3CC=C4C[C@@H](O)CC[C@]4(C)[C@H]3CC[C@@]21C` [PREGNENOLONE CARBONITRILE], the Activity result in data set [1] was “inducer []”. With `COC(=O)C1=C(C)NC(C)=C(C(=O)OC)C1c1ccccc1[N+](=O)[O-]` [NIFEDIPINE], the Activity entry in data set [1] was “inducer []”. For `CC(C)(C(=O)c1cccnc1)c1cccnc1` [METYRAPONE], in data set [1], the Activity entry is “inducer []”. Regarding `C#C[C@]1(O)CC[C@H]2[C@@H]3CCC4=CC(=O)CCC4=C3[C@@H](c3ccc(N(C)C)cc3)C[C@]21C`, the Activity entry in data set [2] and in data set [1] was “inducer []” in each case. In the case of `C[C@H](CCC(=O)O)[C@H]1CC[C@H]2[C@@H]3CC[C@@H]4C[C@H](O)CC[C@]4(C)[C@H]3CC[C@]12C` [LITHOCHOLIC ACID], in data set [1], the Activity result is “inducer []”. `CO[C@H]1/C=C/O[C@@]2(C)Oc3c(C)c(O)c4c(O)c(c(/C=N/N5CCN(C)CC5)c(O)c4c3C2=O)NC(=O)/C(C)=C\C=C\[C@H](C)[C@H](O)[C@@H](C)[C@@H](O)[C@@H](C)[C@H](OC(C)=O)[C@@H]1C` [RIFAMPIN]: the Activity result in data set [1] is “inducer []”. As for `Clc1ccccc1C(c1ccccc1)(c1ccccc1)n1ccnc1` [CLOTRIMAZOLE], in data set [1], the Activity result was “inducer []”.
